Columns and labels:
[1] = tested on: iPSC-derived chondronoids (MCRIi019-A and MCRIi018-B); assay: Chondronoid maturation to hypertrophy with T3; assay type: cell-based, human
Description: Triiodothyronine (T3) is crucial for chondrocyte hypertrophy (Aghajanian et al., 2017) thus in some experiments differentiated chondrocytes were treated with 10 nM T3 (Sigma-Aldrich) for 10-21 days to induce chondrocyte hypertrophy. From day 20 (after 2 weeks of FGF2 treatment), differentiation/maturation continued in APEL2/5% PFHM (without FGF2) with medium replaced every 2-3 days. T3 was added when the pellets had consistent and even cartilage histology, which ranged between 4 and 6 weeks post-sclerotome chondrocyte differentiation. In some experiments, pellets were briefly treated with 0.25% trypsin/EDTA for 4 min at 37° C. with agitation to remove the small amount of non-cartilage tissue that occasionally remained on the surface of the chondrocyte pellets. These were allowed to recover in chondrocyte medium (APEL2/5% PFHM) for 1 week before analysis and/or T3 treatment and continued maturation.
(§1) Cultured and in vivo grafted pellet organoids were fixed overnight at 4° C. in Confix (Australian Biostain) neutral-buffered formalin, then […] washed in 70% ethanol, and paraffin-embedded. After fixing, some in vivo grafted pellets were washed in water for 10 minutes then decalcified in 14% EDTA, pH 7.4 at 4° C. for 5 days before embedding. Serial 5 μm sections cut from the pellet centers were mounted on Superfrost Plus slides (Menzel-Gläser) and heated at 55° C. overnight. Sections were treated with xylene to remove the paraffin wax and an ethanol series comprising 100%, 90%, 70%, 50% ethanol then water to rehydrate the sections. Sections were stained with toluidine blue to detect a cartilage proteoglycan matrix or safranin O/fast green for cartilage and bone following standard protocols. Osteogenic pellet sections were also stained with von Kossa to detect mineralization. Images were captured using a Leica DM 2000 LED microscope with Leica Application Suite (LAS) software version 4.9.0 or Zeiss Axio Imager Z2 with Zen 3.1 Blue Edition software.
Formalin fixed and paraffin-embedded sections were immunostained for collagen II (MAB8887; Sigma-Aldrich; 1:150 dilution), collagen I (LF68; Kerafast ENH018-FP; 1:100), collagen X (Cameron et al., 2015) (1:100), PRG4 (clone 9G3; Merck) (1:100) and Ku80 (Cell Signaling) (1:300). For collagen II staining, antigen retrieval used 2 mg/ml porcine pepsin (Sigma) freshly prepared in 1 M Tris/HCl, pH 2.0 for 30 minutes at 37° C., followed by digestion for 30 minutes at 37° C. with 0.2% hyaluronidase (Sigma-Aldrich) in PBS. Collagen X antigen retrieval involved heating to 60° C. in 10 mM Tris/1 mM EDTA/0.05% Tween-20, pH 9.0 (Tris/EDTA) for 30 min, cooling to room temperature for 30 minutes, followed by hyaluronidase digestion and collagen I and Ku80 staining followed antigen retrieval at 60° C. in Tris/EDTA as above. Sections to be stained with Ku80 were then permeabilized with 0.05% Triton X-100. Sections were blocked with 3% BSA in PBS for 1 hour at room temperature, then incubated with primary antibodies in 1% BSA in PBS for 16 hours at 4° C. Appropriate species specific Alexa Fluor 488 and 594 secondary antibodies (ThermoFisher) were diluted 1:200 in 1% BSA in PBS with 2.5 μg/ml DAPI, and sections incubated for 1 hour at room temperature. Slides were washed with PBS and coverslips mounted using Shandon Immumount (ThermoFisher). Images were captured as described above. For collagen X intracellular colocalization studies sections were treated with 0.2% hyaluronidase at 37° C. for 30 minutes then permeabilized with 0.05% Triton X-100. The collagen X antibody was used at 1:100, 58K (PA1-9000; ThermoFisher) at 1:50, GRP94 (PA5-18534; ThermoFisher) 1:200 and LAMP2 (ab25631; Abcam) 1:50. Images were captured on a Zeiss LSM900 Airyscan 2 confocal microscope with Zen 3.1 Blue Edition software. […]

[2] = tested on: MCRIi001-A-2 organoids; assay: Osteogenic differentiation conditions in a second iPSC line; assay type: cell-based, human; settings: 10 nM T3 for 14 days before osteogenic culture; both osteogenic conditions
Description: Hypertrophic chondrocytes can transdifferentiate into osteoblasts and osteocytes in vivo (Yang et al., 2014; Zhou et al., 2014). To recapitulate this later stage of endochondral bone formation in vitro, hypertrophic chondrocyte pellets in orbital culture were rinsed in PBS then cultured in DMEM, high glucose, GlutaMAX Supplement, pyruvate (ThermoFisher), 20% FBS (ThermoFisher), 10 mM β-glycerophosphate, 50 μg/ml ascorbic acid 2-phosphate, 50 μg/ml sodium ascorbate, 100 nM dexamethasone (osteogenic differentiation media) for up to three weeks. […] Media was replaced every 2-3 days.
as §1, with “Osteogenic pellet sections were also stained with von Kossa to detect mineralization. Images were captured using a Leica DM 2000 LED microscope with Leica Application Suite (LAS) software version 4.9.0 or Zeiss Axio Imager Z2 with Zen 3.1 Blue Edition software.” left out

[3] = T3 from day 48 to day 69, RNAseq

## N[C@@H](Cc1cc(I)c(Oc2ccc(O)c(I)c2)c(I)c1)C(=O)O [T3, Triiodothyronine]
[1]; T3 from day 48 to day 69
  spontaneous maturation to hypertrophic chondrocytes: enhanced
[1]; [3]
  expression of canonical cartilage genes (COL2A1, COL9A1, COL11A1, SOX9, SOX6, SOX5): downregulated
  expression of late hypertrophic cartilage markers (VEGFA, DMP1, HIF1A, MMP13, ALPL): enhanced expression
[1]; compared with spontaneous hypertrophy
  expression of ALPL, FOSL2, VEGFA, BMP7 and DMP1: only upregulated after stimulation
[1]; day 69
  chondronoid appearance by histology and immunostaining: appeared similar with and without T3
[1]; day 69+T3, core matrisome RNAseq
  expression of sentinel cartilage genes (COL11A1, COL9A1, COL9A2, COL9A3, EPYC, MATN1, LUM, COMP, EDIL3): downregulated
[2]
  von Kossa staining in organoids pre-treated v not pre-treated: more extensive and more intense von Kossa staining

Source: US20250270507A1, “METHODS FOR PRODUCING CARTILAGE AND BONES” (Murdoch Children's Research Institute, priority 2021, published 2025)
